Results taken from US20230340011A1 (Asteroid Therapeutics, priority 2022, published 2023).

Legend:
SREBP-2 = SREBP-2 (Homo sapiens (Human), UniProt Q12772); experiment: In vitro assay SREBP-2: PathHunter U2OS SREBP-2 Nuclear Translocation Cell Line, U18666A-stimulated; format: cell-based; settings: PathHunter U2OS SREBP-2 nuclear translocation cells, U18666A 10 μM, overnight (16 hours)
LXRβ = LXRβ (Homo sapiens (Human), UniProt P55055); experiment: In vitro assay LXRβ: PathHunter NHR CHO cells, LXRβ / Steroid Receptor Co-activator Peptide enzyme fragment complementation; format: cell-based; settings: PathHunter NHR CHO cells, full-length human LXRβ and SRCP, chemiluminescent signal; read-out: LXRβ PPI
LXRβ, sequence (P55055 whole entry, the tested form may be a part): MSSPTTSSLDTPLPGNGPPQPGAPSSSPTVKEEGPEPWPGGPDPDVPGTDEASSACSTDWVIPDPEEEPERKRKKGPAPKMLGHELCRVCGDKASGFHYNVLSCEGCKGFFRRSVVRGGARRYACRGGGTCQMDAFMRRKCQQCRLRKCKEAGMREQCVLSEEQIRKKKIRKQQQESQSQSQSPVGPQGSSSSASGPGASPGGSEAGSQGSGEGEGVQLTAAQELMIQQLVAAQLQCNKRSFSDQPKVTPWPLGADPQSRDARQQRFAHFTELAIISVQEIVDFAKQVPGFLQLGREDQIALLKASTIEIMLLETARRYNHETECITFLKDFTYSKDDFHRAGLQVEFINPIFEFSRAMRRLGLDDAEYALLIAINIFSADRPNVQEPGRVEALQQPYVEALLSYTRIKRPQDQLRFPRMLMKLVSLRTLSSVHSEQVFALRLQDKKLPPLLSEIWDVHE
Outline: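 Co-activator recruitment measured by chemiluminescence after signal generation. The CHO line carries full-length human LXRβ tagged with ProLink and an SRCP–enzyme acceptor fusion in the nucleus; cells sat overnight at 37° C before testing, in charcoal-dextran filtered serum medium with 1% final vehicle.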

| Structure (SMILES) | IC50 (SREBP-2) | EC50 (LXRβ) |
| --- | --- | --- |
| C[C@H](CCC(=O)N1CCN(C(=O)C2CCCC2)CC1)[C@H]1CC[C@H]2[C@@H]3CC=C4C[C@@H](O)CC[C@]4(C)[C@H]3CC[C@]12C [Example 515, (R)-1-(4-(cyclopentanecarbonyl)piperazin-1-yl)-4-((3S,8S,9S,10R,13R,14S,17R)-3-hydroxy-10,13-dimethyl-2,3,4,7,8,9,10,11,12,13,14,15,16,17-tetradecahydro-1H-cyclopenta[a]phenanthren-17-yl)pentan-1-one] | < 250 nM | > 10000 nM |
| C[C@H](CCC(=O)N1CCC(C)(CNC(=O)C(C)(C)O)CC1)[C@H]1CC[C@H]2[C@@H]3CC=C4C[C@@H](O)CC[C@]4(C)[C@H]3CC[C@]12C [Example 365, 2-hydroxy-N-((1-((R)-4-((3S,8S,9S,10R,13R,14S,17R)-3-hydroxy-10,13-dimethyl-2,3,4,7,8,9,10,11,12,13,14,15,16,17-tetradecahydro-1H-cyclopenta[a]phenanthren-17-yl)pentanoyl)-4-methylpiperidin-4-yl)methyl)-2-methylpropanamide] | < 250 nM | > 10000 nM |
| CCC1(O)CCN(C(=O)CC[C@@H](C)[C@H]2CC[C@H]3[C@@H]4CC=C5C[C@@H](O)CC[C@]5(C)[C@H]4[C@@H](O)C[C@]23C)CC1 [Example 158, (R)-4-((3S,8S,9S,10R,11S,13R,14S,17R)-3,11-dihydroxy-10,13-dimethyl-2,3,4,7,8,9,10,11,12,13,14,15,16,17-tetradecahydro-1H-cyclopenta[a]phenanthren-17-yl)-1-(4-ethyl-4-hydroxypiperidin-1-yl)pentan-1-one] | 250 to 1000 nM | < 250 nM |
| CON(CCN)C(=O)CC[C@@H](C)[C@H]1CC[C@H]2[C@@H]3CC=C4C[C@@H](O)CC[C@]4(C)[C@H]3CC[C@]12C [Example 64, (R)—N-(2-aminoethyl)-4-((3S,8S,9S,10R,13R,14S,17R)-3-hydroxy-10,13-dimethyl-2,3,4,7,8,9,10,11,12,13,14,15,16,17-tetradecahydro-1H-cyclopenta[a]phenanthren-17-yl)-N-methoxypentanamide] | 250 to 1000 nM | < 250 nM |
| Cc1cccc(OC[C@@H](C)[C@H]2CC[C@H]3[C@@H]4CC=C5C[C@@H](O)CC[C@]5(C)[C@H]4CC[C@]23C)n1 [Example 264, (1R,3aS,3bS,7S,9aR,9bS,11aS)-9a,11a-dimethyl-1-[(2S)-1-[(6-methylpyridin-2-yl)oxy]propan-2-yl]-1H,2H,3H,3aH,3bH,4H,6H,7H,8H,9H,9aH,9bH,10H,11H,11aH-cyclopenta[a]phenanthren-7-ol] | 250 to 1000 nM | > 10000 nM |
| C[C@H](CCC(=O)N1CCN(C(=O)C2CC2)C[C@@H]1C)[C@H]1CC[C@H]2[C@@H]3CC=C4C[C@@H](O)CC[C@]4(C)[C@H]3CC[C@]12C [Example 651, (R)-1-((S)-4-(cyclopropanecarbonyl)-2-methylpiperazin-1-yl)-4-((3S,8S,9S,10R,13R,14S,17R)-3-hydroxy-10,13-dimethyl-2,3,4,7,8,9,10,11,12,13,14,15,16,17-tetradecahydro-1H-cyclopenta[a]phenanthren-17-yl)pentan-1-one] | < 250 nM | > 10000 nM |
| C[C@H]1CCN(C(=O)CC[C@@H](C)[C@H]2CC[C@H]3[C@@H]4CC=C5C[C@@H](O)CC[C@]5(C)[C@H]4CC[C@]23C)C1 [Example 114, (R)-4-((3S,8S,9S,10R,13R,14S,17R)-3-hydroxy-10,13-dimethyl-2,3,4,7,8,9,10,11,12,13,14,15,16,17-tetradecahydro-1H-cyclopenta[a]phenanthren-17-yl)-1-((S)-3-methylpyrrolidin-1-yl)pentan-1-one] | < 250 nM | 250 to 1000 nM |
| C[C@H](CCC(=O)N1CCN(c2cc(N(C)C)ncn2)CC1)[C@H]1CC[C@H]2[C@@H]3CC=C4C[C@@H](O)CC[C@]4(C)[C@H]3CC[C@]12C [Example 663, (R)-1-(4-(6-(dimethylamino)pyrimidin-4-yl)piperazin-1-yl)-4-((3S,8S,9S,10R,13R,14S,17R)-3-hydroxy-10,13-dimethyl-2,3,4,7,8,9,10,11,12,13,14,15,16,17-tetradecahydro-1H-cyclopenta[a]phenanthren-17-yl)pentan-1-one] | < 250 nM | > 10000 nM |
| CCC1(O)CCN(C(=O)C(=O)O[C@@H](C)[C@H]2CC[C@H]3[C@@H]4CC=C5C[C@@H](O)CC[C@]5(C)[C@H]4CC[C@]23C)CC1 [Example 200, (S)-1-((3S,8S,9S,10R,13S,14S,17S)-3-hydroxy-10,13-dimethyl-2,3,4,7,8,9,10,11,12,13,14,15,16,17-tetradecahydro-1H-cyclopenta[a]phenanthren-17-yl)ethyl 2-(4-ethyl-4-hydroxypiperidin-1-yl)-2-oxoacetate] | < 250 nM | 1000 to 10000 nM |
| C[C@H](CCC(=O)N1CCC(C)(CNS(C)(=O)=O)CC1)[C@H]1CC[C@H]2[C@@H]3CC=C4C[C@@H](O)CC[C@]4(C)[C@H]3CC[C@]12C [Example 367, N-({1-[(4R)-4-[(1R,3aS,3bS,7S,9aR,9bS,11aR)-7-hydroxy-9a,11a-dimethyl-1H,2H,3H,3aH,3bH,4H,6H,7H,8H,9H,9aH,9bH,10H,11H,11aH-cyclopenta[a]phenanthren-1-yl]pentanoyl]-4-methylpiperidin-4-yl}methyl)methanesulfonamide] | < 250 nM | > 10000 nM |
| CCC1(O)CCN(C(=O)OC[C@@H](C)[C@H]2CC[C@H]3[C@@H]4CC=C5C[C@@H](O)CC[C@]5(C)[C@H]4CC[C@]23C)CC1 [Example 348, (S)-2-((3S,8S,9S,10R,13S,14S,17R)-3-hydroxy-10,13-dimethyl-2,3,4,7,8,9,10,11,12,13,14,15,16,17-tetradecahydro-1H-cyclopenta [a]phenanthren-17-yl)propyl 4-ethyl-4-hydroxypiperidine-1-carboxylate] | < 250 nM | > 10000 nM |
| C[C@H](CCc1ncccc1CO)[C@H]1CC[C@H]2[C@@H]3CC=C4C[C@@H](O)CC[C@]4(C)[C@H]3CC[C@]12C [Example 250, (3S,8S,9S,10R,13R,14S,17R)-17-((R)-4-(3-(hydroxymethyl)pyridin-2-yl)butan-2-yl)-10,13-dimethyl-2,3,4,7,8,9,10,11,12,13,14,15,16,17-tetradecahydro-1H-cyclopenta[a]phenanthren-3-ol] | < 250 nM | < 250 nM |
| CC(O)C1CCN(C(=O)CC[C@@H](C)[C@H]2CC[C@H]3[C@@H]4CC=C5C[C@@H](O)CC[C@]5(C)[C@H]4CC[C@]23C)CC1 (stereo partly drawn) [Example 377, (4R)-4-[(1R,3aS,3bS,7S,9aR,9bS,11aR)-7-hydroxy-9a,11a-dimethyl-1H,2H,3H,3aH,3bH,4H,6H,7H,8H,9H,9aH,9bH,10H,11H,11aH-cyclopenta[a]phenanthren-1-yl]-1-[4-(1-hydroxyethyl)piperidin-1-yl]pentan-1-one] | < 250 nM | 250 to 1000 nM |
| C[C@H](CCC(=O)N1CCN(c2ncncc2O)CC1)[C@H]1CC[C@H]2[C@@H]3CC=C4C[C@@H](O)CC[C@]4(C)[C@H]3CC[C@]12C [Example 630, (R)-4-((3S,8S,9S,10R,13R,14S,17R)-3-hydroxy-10,13-dimethyl-2,3,4,7,8,9,10,11,12,13,14,15,16,17-tetradecahydro-1H-cyclopenta[a]phenanthren-17-yl)-1-(4-(5-hydroxypyrimidin-4-yl)piperazin-1-yl)pentan-1-one] | < 250 nM | > 10000 nM |
| C[C@H](CCc1ncco1)[C@H]1CC[C@H]2[C@@H]3CC=C4C[C@@H](O)CC[C@]4(C)[C@H]3CC[C@]12C [Example 137, (3S,8S,9S,10R,13R,14S,17R)-10,13-dimethyl-17-((R)-4-(oxazol-2-yl)butan-2-yl)-2,3,4,7,8,9,10,11,12,13,14,15,16,17-tetradecahydro-1H-cyclopenta[a]phenanthren-3-ol] | 250 to 1000 nM | 1000 to 10000 nM |
| Cc1nnc(N2CCN(C(=O)CC[C@@H](C)[C@H]3CC[C@H]4[C@@H]5CC=C6C[C@@H](O)CC[C@]6(C)[C@H]5CC[C@]34C)CC2)o1 [Example 482, (R)-4-((3S,8S,9S,10R,13R,14S,17R)-3-hydroxy-10,13-dimethyl-2,3,4,7,8,9,10,11,12,13,14,15,16,17-tetradecahydro-1H-cyclopenta[a]phenanthren-17-yl)-1-(4-(5-methyl-1,3,4-oxadiazol-2-yl)piperazin-1-yl)pentan-1-one] | < 250 nM | > 10000 nM |
| COc1ccncc1N1CCN(C(=O)CC[C@@H](C)[C@H]2CC[C@H]3[C@@H]4CC=C5C[C@@H](O)CC[C@]5(C)[C@H]4CC[C@]23C)CC1 [Example 611, (R)-4-((3S,8S,9S,10R,13R,14S,17R)-3-hydroxy-10,13-dimethyl-2,3,4,7,8,9,10,11,12,13,14,15,16,17-tetradecahydro-1H-cyclopenta[a]phenanthren-17-yl)-1-(4-(4-methoxypyridin-3-yl)piperazin-1-yl)pentan-1-one] | < 250 nM | > 10000 nM |
| C[C@H](CCc1ncns1)[C@H]1CC[C@H]2[C@@H]3CC=C4C[C@@H](O)CC[C@]4(C)[C@H]3CC[C@]12C [Example 174, (1R,3aS,3bS,7S,9aR,9bS,11aR)-9a,11a-dimethyl-1-[(2R)-4-(1,2,4-thiadiazol-5-yl)butan-2-yl]-1H,2H,3H,3aH,3bH,4H,6H,7H,8H,9H,9aH,9bH,10H,11H,11aH-cyclopenta[a]phenanthren-7-ol] | 250 to 1000 nM | 250 to 1000 nM |
| COc1cncnc1N1CCN(C(=O)CC[C@@H](C)[C@H]2CC[C@H]3[C@@H]4CC=C5C[C@@H](O)CC[C@]5(C)[C@H]4CC[C@]23C)C[C@@H]1C [Example 615, (R)-4-((3S,8S,9S,10R,13R,14S,17R)-3-hydroxy-10,13-dimethyl-2,3,4,7,8,9,10,11,12,13,14,15,16,17-tetradecahydro-1H-cyclopenta[a]phenanthren-17-yl)-1-((S)-4-(5-methoxypyrimidin-4-yl)-3-methylpiperazin-1-yl)pentan-1-one] | < 250 nM | > 10000 nM |
